Measured values reported in ChEMBL document CHEMBL4385643, “Design of a brain-penetrant CDK4/6 inhibitor for glioblastoma” (Bioorg Med Chem Lett, 2019).

Columns and labels:
[1] = biological target: Interleukin-1 receptor-associated kinase 1 (Homo sapiens) (UniProt P51617); experiment: Inhibition of recombinant human GST-tagged IRAK1 catalytic domain (194 to 712 residues) expressed in baculovirus expression system at 0.1 uM using Histone H3 (1-20) peptide as substrate incubated for 60 mins by Adapta assay relative to control
[2] = biological target: MAP kinase-activated protein kinase 2 (Homo sapiens) (UniProt P49137); experiment: Inhibition of recombinant full length human His-tagged MAPKAPK2 expressed in Escherichia coli expression system at 0.1 uM using serine/threonine-4 peptide as substrate incubated for 60 mins by Z'-LYTE assay relative to control
[3] = biological target: Tyrosine-protein kinase FRK (Homo sapiens) (UniProt P42685); experiment: Inhibition of recombinant full length human GST-tagged FRK expressed in baculovirus expression system at 0.1 uM using tyrosine-1 peptide as substrate incubated for 60 mins by Z'-LYTE assay relative to control
[4] = biological target: Serine/threonine-protein kinase Chk1 (Homo sapiens) (UniProt O14757); experiment: Inhibition of recombinant full length human His-tagged CHK1 expressed in baculovirus expression system at 0.1 uM using serine/threonine-19 peptide as substrate incubated for 60 mins by Z'-LYTE assay relative to control
[5] = biological target: Macrophage-stimulating protein receptor (Homo sapiens) (UniProt Q04912); experiment: Inhibition of recombinant human GST-tagged RON catalytic domain (983 to 1400 residues) expressed in baculovirus expression system at 0.1 uM using tyrosine-6 peptide as substrate incubated for 60 mins by Z'-LYTE assay relative to control
[6] = biological target: Calcium/calmodulin-dependent protein kinase type 1D (Homo sapiens) (UniProt Q8IU85); experiment: Inhibition of recombinant full length human His-tagged CAMK1delta expressed in baculovirus expression system at 0.1 uM using serine/threonine-25 peptide as substrate incubated for 60 mins by Z'-LYTE assay relative to control
[7] = biological target: Phosphatidylinositol 4,5-bisphosphate 3-kinase catalytic subunit alpha isoform (Homo sapiens) (UniProt P42336); experiment: Inhibition of recombinant full length human GST-tagged PI3Kalpha expressed in baculovirus expression system at 0.1 uM using PI Lipid Kinase as substrate incubated for 60 mins by Adapta assay relative to control
[8] = biological target: Proto-oncogene tyrosine-protein kinase Src (Homo sapiens) (UniProt P12931); experiment: Inhibition of recombinant full length human His-tagged SRC expressed in baculovirus expression system at 0.1 uM using tyrosine-2 peptide as substrate incubated for 60 mins by Z'-LYTE assay relative to control
[9] = biological target: STE20-like serine/threonine-protein kinase (Homo sapiens) (UniProt Q9H2G2); experiment: Inhibition of tracer 236 binding to recombinant full length human GST-tagged SLK expressed in baculovirus expression system at 0.1 uM measured after 60 mins by Lanthascreen assay relative to control
[10] = biological target: G protein-coupled receptor kinase 6 (Homo sapiens) (UniProt P43250); experiment: Inhibition of recombinant full length human GST-tagged GRK6 expressed in baculovirus expression system at 0.1 uM using serine/threonine-16 peptide as substrate incubated for 60 mins by Z'-LYTE assay relative to control
[11] = biological target: Protein kinase C delta type (Homo sapiens) (UniProt Q05655); experiment: Inhibition of recombinant full length human GST-tagged PKCdelta expressed in insect expression system at 0.1 uM using serine/threonine-7 peptide as substrate incubated for 60 mins by Z'-LYTE assay relative to control
[12] = biological target: Testis-specific serine/threonine-protein kinase 1 (Homo sapiens) (UniProt Q9BXA7); experiment: Inhibition of recombinant full length human His-tagged TSSK1 expressed in baculovirus expression system at 0.1 uM using serine/threonine-4 peptide as substrate incubated for 60 mins by Z'-LYTE assay relative to control
[13] = biological target: Mitogen-activated protein kinase kinase kinase 5 (Homo sapiens) (UniProt Q99683); experiment: Inhibition of tracer 236 binding to recombinant full length human GST-tagged ASK1 expressed in baculovirus expression system at 0.1 uM measured after 60 mins by Lanthascreen assay relative to control
[14] = biological target: Protein kinase C theta type (Homo sapiens) (UniProt Q04759); experiment: Inhibition of recombinant full length human His-tagged PKCtheta expressed in baculovirus expression system at 0.1 uM using serine/threonine-7 peptide as substrate incubated for 60 mins by Z'-LYTE assay relative to control
[15] = biological target: Serine/threonine-protein kinase Sgk1 (Homo sapiens) (UniProt O00141); experiment: Inhibition of recombinant human GST-tagged SGK1 catalytic domain (60 to 431 residues) expressed in baculovirus expression system at 0.1 uM using serine/threonine-6 peptide as substrate incubated for 60 mins by Z'-LYTE assay relative to control
[16] = biological target: Eukaryotic elongation factor 2 kinase (Homo sapiens) (UniProt O00418); experiment: Inhibition of recombinant full length human GST-tagged EEF2K expressed in Escherichia coli expression system at 0.1 uM using serine/threonine-24 peptide as substrate incubated for 60 mins by Z'-LYTE assay relative to control
[17] = biological target: Tyrosine-protein kinase receptor UFO (Homo sapiens) (UniProt P30530); experiment: Inhibition of recombinant full length human GST-tagged AXL expressed in insect expression system at 0.1 uM using tyrosine-6 peptide as substrate incubated for 60 mins by Z'-LYTE assay relative to control
[18] = biological target: Serine/threonine-protein kinase PAK 1 (Homo sapiens) (UniProt Q13153); experiment: Inhibition of recombinant full length human GST-tagged PAK1 expressed in baculovirus expression system at 0.1 uM using serine/threonine-19 peptide as substrate incubated for 60 mins by Z'-LYTE assay relative to control
[19] = biological target: Protein kinase C alpha type (Homo sapiens) (UniProt P17252); experiment: Inhibition of recombinant human GST-tagged PKCalpha expressed in insect expression system at 0.1 uM using serine/threonine-7 peptide as substrate incubated for 60 mins by Z'-LYTE assay relative to control
[20] = biological target: Mitogen-activated protein kinase kinase kinase 20 (Homo sapiens) (UniProt Q9NYL2); experiment: Inhibition of recombinant full length human GST-tagged ZAK expressed in baculovirus expression system at 0.1 uM using CREBtide as substrate 60 mins by Lanthascreen assay relative to control
[21] = biological target: Casein kinase I isoform alpha (Homo sapiens) (UniProt P48729); experiment: Inhibition of recombinant full length human GST-tagged CK1alpha1 expressed in baculovirus expression system at 0.1 uM using serine/threonine-11 peptide as substrate incubated for 60 mins by Z'-LYTE assay relative to control
[22] = biological target: Activin receptor type-2B (Homo sapiens) (UniProt Q13705); experiment: Inhibition of tracer 178 binding to recombinant human GST-tagged ACVR2B catalytic domain (185 to 488 residues) expressed in baculovirus at 0.1 uM measured after 60 mins by Lanthascreen assay
[23] = biological target: Serine/threonine-protein kinase 4 (Homo sapiens) (UniProt Q13043); experiment: Inhibition of recombinant full length human GST-tagged MST1 expressed in baculovirus expression system at 0.1 uM using serine/threonine-7 peptide as substrate incubated for 60 mins by Z'-LYTE assay relative to control
Sequence of Serine/threonine-protein kinase 4 (Homo sapiens) (Q13043 whole entry): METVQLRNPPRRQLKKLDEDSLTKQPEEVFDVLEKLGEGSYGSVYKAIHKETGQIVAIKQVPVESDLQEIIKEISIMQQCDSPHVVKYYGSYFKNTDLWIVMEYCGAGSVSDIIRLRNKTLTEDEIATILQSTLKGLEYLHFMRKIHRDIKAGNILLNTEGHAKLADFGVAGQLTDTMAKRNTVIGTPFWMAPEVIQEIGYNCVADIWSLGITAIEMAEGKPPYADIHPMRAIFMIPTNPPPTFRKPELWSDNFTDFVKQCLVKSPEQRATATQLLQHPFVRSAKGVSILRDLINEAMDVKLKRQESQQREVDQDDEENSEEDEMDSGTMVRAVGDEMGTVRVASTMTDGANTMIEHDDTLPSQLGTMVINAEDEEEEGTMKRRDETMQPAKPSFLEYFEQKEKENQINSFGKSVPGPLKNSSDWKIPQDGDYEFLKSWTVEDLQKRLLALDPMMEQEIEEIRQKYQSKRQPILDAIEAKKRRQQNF

Sequence of Macrophage-stimulating protein receptor (Homo sapiens) (Q04912 25-304 limits assumed): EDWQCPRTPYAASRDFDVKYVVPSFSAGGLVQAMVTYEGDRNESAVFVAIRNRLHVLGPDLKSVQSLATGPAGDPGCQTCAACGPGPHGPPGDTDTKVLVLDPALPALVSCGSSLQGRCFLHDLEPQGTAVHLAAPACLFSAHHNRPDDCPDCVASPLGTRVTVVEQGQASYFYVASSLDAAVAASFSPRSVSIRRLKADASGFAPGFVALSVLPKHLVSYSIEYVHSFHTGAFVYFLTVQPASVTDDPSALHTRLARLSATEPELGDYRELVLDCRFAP
Sequence of Macrophage-stimulating protein receptor (Homo sapiens) (Q04912 310-1400 limits assumed): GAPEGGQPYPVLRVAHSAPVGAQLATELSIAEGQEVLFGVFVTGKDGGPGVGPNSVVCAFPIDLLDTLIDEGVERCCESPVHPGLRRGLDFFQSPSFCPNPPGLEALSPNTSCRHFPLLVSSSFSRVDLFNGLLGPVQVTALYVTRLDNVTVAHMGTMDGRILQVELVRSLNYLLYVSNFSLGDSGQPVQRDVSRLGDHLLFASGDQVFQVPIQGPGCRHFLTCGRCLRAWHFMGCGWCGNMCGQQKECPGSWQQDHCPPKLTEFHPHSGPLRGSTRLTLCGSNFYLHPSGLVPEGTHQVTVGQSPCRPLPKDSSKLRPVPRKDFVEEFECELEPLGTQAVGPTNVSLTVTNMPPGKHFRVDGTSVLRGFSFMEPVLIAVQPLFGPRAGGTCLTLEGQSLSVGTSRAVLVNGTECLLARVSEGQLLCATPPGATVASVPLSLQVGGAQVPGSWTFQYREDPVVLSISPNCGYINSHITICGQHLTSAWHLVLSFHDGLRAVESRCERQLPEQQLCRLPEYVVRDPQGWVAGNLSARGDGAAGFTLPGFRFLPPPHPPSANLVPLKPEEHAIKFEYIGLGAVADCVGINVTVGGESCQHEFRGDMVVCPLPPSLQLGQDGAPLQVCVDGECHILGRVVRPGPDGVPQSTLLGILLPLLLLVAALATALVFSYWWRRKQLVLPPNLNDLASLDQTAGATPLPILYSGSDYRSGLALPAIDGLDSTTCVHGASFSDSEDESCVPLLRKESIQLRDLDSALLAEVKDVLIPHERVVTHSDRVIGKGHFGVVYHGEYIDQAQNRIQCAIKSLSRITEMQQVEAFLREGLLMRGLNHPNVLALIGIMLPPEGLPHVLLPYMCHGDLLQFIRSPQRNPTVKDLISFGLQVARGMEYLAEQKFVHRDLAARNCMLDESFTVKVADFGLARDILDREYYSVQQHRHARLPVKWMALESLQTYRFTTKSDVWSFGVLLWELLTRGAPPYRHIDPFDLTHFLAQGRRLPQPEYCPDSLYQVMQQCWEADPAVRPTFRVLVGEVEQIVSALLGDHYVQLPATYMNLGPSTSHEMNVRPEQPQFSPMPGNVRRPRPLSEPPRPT
Sequence of MAP kinase-activated protein kinase 2 (Homo sapiens) (P49137 whole entry, looked up): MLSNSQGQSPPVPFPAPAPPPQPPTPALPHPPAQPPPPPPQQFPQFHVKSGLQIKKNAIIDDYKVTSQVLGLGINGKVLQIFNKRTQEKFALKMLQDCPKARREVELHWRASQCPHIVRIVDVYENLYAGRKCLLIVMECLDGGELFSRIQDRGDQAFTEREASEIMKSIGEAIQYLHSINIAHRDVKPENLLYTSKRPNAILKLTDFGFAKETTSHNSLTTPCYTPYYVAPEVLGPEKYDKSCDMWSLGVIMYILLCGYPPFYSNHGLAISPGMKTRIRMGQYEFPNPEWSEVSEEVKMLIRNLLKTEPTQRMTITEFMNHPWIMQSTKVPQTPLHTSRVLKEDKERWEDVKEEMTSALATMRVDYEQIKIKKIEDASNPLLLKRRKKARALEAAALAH
Sequence of Mitogen-activated protein kinase kinase kinase 5 (Homo sapiens) (Q99683 whole entry): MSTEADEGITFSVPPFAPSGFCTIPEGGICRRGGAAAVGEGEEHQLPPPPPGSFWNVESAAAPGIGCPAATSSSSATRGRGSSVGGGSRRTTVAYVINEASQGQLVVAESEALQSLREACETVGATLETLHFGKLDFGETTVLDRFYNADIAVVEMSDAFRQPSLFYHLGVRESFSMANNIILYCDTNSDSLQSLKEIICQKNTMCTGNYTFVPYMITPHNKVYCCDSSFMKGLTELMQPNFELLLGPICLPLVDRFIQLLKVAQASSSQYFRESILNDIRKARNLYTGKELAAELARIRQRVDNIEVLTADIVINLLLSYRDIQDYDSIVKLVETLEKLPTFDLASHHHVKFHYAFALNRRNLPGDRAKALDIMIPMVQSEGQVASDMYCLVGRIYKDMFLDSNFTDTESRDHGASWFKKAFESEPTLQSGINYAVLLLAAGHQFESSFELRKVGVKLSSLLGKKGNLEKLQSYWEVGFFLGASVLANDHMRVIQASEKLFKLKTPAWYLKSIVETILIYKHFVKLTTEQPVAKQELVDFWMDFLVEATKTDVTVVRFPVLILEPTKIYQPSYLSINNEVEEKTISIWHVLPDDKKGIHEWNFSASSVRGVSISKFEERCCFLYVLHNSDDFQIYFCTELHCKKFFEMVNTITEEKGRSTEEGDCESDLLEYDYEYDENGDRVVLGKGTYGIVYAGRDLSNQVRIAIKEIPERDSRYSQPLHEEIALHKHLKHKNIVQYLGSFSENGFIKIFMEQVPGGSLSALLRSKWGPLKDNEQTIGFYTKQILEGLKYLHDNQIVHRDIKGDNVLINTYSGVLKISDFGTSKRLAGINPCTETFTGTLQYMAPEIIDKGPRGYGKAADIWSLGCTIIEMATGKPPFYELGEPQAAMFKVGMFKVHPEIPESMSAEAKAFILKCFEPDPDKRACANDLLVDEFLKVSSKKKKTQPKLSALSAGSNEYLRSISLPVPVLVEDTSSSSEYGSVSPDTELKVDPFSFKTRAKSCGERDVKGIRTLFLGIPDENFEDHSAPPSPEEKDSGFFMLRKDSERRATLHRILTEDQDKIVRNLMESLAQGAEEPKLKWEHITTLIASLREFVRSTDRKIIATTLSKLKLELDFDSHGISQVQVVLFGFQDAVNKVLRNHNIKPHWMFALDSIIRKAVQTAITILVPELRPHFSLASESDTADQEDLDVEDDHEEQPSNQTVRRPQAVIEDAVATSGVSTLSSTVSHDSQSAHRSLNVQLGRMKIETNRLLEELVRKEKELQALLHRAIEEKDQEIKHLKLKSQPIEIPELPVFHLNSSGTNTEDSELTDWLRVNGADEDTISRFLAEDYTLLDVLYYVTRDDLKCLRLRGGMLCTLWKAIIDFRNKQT
Sequence of G protein-coupled receptor kinase 6 (Homo sapiens) (P43250 whole entry, looked up): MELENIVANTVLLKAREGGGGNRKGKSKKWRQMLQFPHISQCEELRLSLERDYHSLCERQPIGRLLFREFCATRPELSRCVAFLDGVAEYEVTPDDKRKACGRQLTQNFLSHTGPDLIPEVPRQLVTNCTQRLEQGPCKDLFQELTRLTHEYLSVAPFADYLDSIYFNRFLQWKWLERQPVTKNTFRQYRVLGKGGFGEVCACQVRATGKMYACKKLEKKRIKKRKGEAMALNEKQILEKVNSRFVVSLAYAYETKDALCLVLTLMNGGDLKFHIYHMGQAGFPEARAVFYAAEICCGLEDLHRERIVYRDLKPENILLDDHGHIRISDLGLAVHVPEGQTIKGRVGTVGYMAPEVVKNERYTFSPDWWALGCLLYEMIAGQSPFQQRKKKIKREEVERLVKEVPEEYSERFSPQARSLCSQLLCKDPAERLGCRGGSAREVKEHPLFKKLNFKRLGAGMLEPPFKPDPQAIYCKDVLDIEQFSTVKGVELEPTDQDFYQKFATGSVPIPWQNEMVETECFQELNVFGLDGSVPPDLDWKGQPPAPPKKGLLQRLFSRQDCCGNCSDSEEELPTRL
Sequence of Protein kinase C delta type (Homo sapiens) (Q05655 whole entry, looked up): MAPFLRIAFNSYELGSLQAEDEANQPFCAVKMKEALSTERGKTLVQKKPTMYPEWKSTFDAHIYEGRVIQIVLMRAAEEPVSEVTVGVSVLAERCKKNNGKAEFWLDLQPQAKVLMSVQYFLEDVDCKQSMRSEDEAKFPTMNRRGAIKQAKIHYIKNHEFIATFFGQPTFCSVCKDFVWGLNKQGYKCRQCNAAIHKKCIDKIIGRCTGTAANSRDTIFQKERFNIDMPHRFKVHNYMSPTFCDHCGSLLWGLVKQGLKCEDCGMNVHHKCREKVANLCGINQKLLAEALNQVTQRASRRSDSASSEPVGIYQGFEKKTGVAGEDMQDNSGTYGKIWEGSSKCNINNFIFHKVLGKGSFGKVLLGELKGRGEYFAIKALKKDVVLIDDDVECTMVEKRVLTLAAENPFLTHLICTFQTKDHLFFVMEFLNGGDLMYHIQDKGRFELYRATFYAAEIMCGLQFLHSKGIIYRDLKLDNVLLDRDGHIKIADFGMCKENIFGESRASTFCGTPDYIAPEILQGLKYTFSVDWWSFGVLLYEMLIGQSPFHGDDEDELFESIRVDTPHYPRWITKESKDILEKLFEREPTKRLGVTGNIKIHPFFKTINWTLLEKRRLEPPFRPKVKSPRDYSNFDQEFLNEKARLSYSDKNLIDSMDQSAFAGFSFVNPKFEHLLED

SMILES | inhibition [1] | inhibition [2] | inhibition [3] | inhibition [4] | inhibition [5] | inhibition [6] | inhibition [7] | inhibition [8] | inhibition [9] | inhibition [10] | inhibition [11] | inhibition [12] | inhibition [13] | inhibition [14] | inhibition [15] | inhibition [16] | inhibition [17] | inhibition [18] | inhibition [19] | inhibition [20] | further results
CCN1CC2(C1)CN(c1ccc(Nc3ncc(F)c(-c4cnn5c4[C@H](C)CCCC5)n3)nc1)C2 | 48.5% | 4.5% | 1.5% | 9% | 7% | 13.5% | 1.5% | 1.5% | 10.5% | 2.5% | 23.5% | 67.5% | 7% | 20.5% | 72.5% | 5.5% | 11.5% | 15.5% | 33% | 5% | inhibition [21]: 1.5%; inhibition [22]: 4.5%; inhibition [23]: 8%
CCN1CCN(Cc2ccc(Nc3ncc(F)c(-c4cc(F)c5nc(C)n(C(C)C)c5c4)n3)nc2)CC1 [ABEMACICLIB] | 99.8% | 14.5% | 5.5% | -4.5% | 10.5% | 14% | 4% | 7.5% | 9.3% | 6% | 48.5% | 21.5% | 4.3% | 21.5% | 64% | 8% | 15% | 3.5% | 77.5% | 1.9% | inhibition [21]: 4.5%; inhibition [22]: 5.4%; inhibition [23]: 1.5%
